Test results reported in PubChem BioAssay AID212 (DTP/NCI, 2004).
“And” between values parts separate entries of the source, which are not always exact repeats. Equal values may be shown once. Records with an inconclusive call do not appear.

System: BDF1 mice, colon carcinoma 38 sc, T/C %
Assay: NCI In Vivo Anticancer Drug Screen. Data for tumor model Colon Carcinoma 38 (subcutaneous) in B6D2F1 (BDF1) mice
Conditions: endpoint: median tumor weight (est.), higher = larger tumour
In short: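 T/C readout: treated group (T) measurement over vehicle control group (C) measurement. Endpoint is survival or tumor size in mice bearing a transplanted tumor.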

[1] = dose: 100.0 mg/kg/injection, schedule: Q07DX002 (ip), vehicle: Klucel (hydroxypropylcellulose) (HPC)
[2] = dose: 200.0 mg/kg/injection, schedule: Q07DX002 (ip), vehicle: Klucel (hydroxypropylcellulose) (HPC)
[3] = dose: 8.0 mg/kg/injection, schedule: Q07DX003 (ip), vehicle: Klucel (hydroxypropylcellulose) (HPC)
[4] = dose: 0.5 mg/kg/injection, schedule: Q07DX002 (ip), vehicle: water
[5] = dose: 1.0 mg/kg/injection, schedule: Q07DX002 (ip), vehicle: water
[6] = dose: 2.0 mg/kg/injection, schedule: Q07DX002 (ip), vehicle: water
[7] = dose: 12.5 mg/kg/injection, schedule: Q07DX003 (ip), vehicle: Klucel (hydroxypropylcellulose) (HPC)
[8] = dose: 25.0 mg/kg/injection, schedule: Q07DX003 (ip), vehicle: Klucel (hydroxypropylcellulose) (HPC)
[9] = dose: 50.0 mg/kg/injection, schedule: Q07DX003 (ip), vehicle: Klucel (hydroxypropylcellulose) (HPC)
[10] = dose: 100.0 mg/kg/injection, schedule: Q07DX003 (ip), vehicle: Klucel (hydroxypropylcellulose) (HPC)
[11] = dose: 200.0 mg/kg/injection, schedule: Q07DX003 (ip), vehicle: Klucel (hydroxypropylcellulose) (HPC)
[12] = dose: 2.5 mg/kg/injection, schedule: Q07DX002 (ip), vehicle: saline

Which T/C (dose: 50.0 mg/kg/injection, schedule: Q07DX002 (ip), vehicle: Klucel (hydroxypropylcellulose) (HPC)) does the source give for `ClCCN(CCCl)c1ccc(/C=C/c2ccccc2)cc1` here?
Its T/C is 71 % of control.

What about the T/C [1] of the same molecule?
Its T/C is 116 % of control.

What about the T/C [2] of the same molecule?
Its T/C is 72 % of control.

And the T/C (dose: 400.0 mg/kg/injection, schedule: Q07DX002 (ip), vehicle: Klucel (hydroxypropylcellulose) (HPC))?
The T/C was 71 % of control.

And the T/C (dose: 800.0 mg/kg/injection, schedule: Q07DX002 (ip), vehicle: Klucel (hydroxypropylcellulose) (HPC))?
Its T/C is 79 % of control.

For `COc1cc([C@@H]2c3cc4c(cc3[C@@H](OC3OC5COC(C)OC5C(O)C3O)[C@H]3COC(=O)[C@H]23)OCO4)cc(OC)c1O` (stereo partly specified), which T/C (dose: 16.0 mg/kg/injection, schedule: Q07DX003 (ip), vehicle: clinical formulation) is on record?
Its T/C is 68 % of control.

And the T/C (dose: 32.0 mg/kg/injection, schedule: Q07DX003 (ip), vehicle: clinical formulation)?
Its T/C is 83 % of control.

And the T/C (dose: 64.0 mg/kg/injection, schedule: Q07DX003 (ip), vehicle: clinical formulation)?
The T/C was 27 % of control.

Which T/C [3] does the source give for `NC(CSC(c1ccccc1)(c1ccccc1)c1ccccc1)C(=O)O` (stereo unspecified) here?
The T/C was 83 % of control.

And the T/C (dose: 8.0 mg/kg/injection, schedule: Q07DX003 (ip), vehicle: saline with Tween-80)?
Its T/C is 78 % of control.

And the T/C (dose: 16.0 mg/kg/injection, schedule: Q07DX003 (ip), vehicle: Klucel (hydroxypropylcellulose) (HPC))?
The T/C was 53 % of control.

What about the T/C (dose: 16.0 mg/kg/injection, schedule: Q07DX003 (ip), vehicle: saline with Tween-80) of the same molecule?
The T/C was 61 % of control.

And the T/C (dose: 32.0 mg/kg/injection, schedule: Q07DX003 (ip), vehicle: Klucel (hydroxypropylcellulose) (HPC))?
The T/C was 64 % of control.

What about the T/C (dose: 32.0 mg/kg/injection, schedule: Q07DX003 (ip), vehicle: saline with Tween-80) of the same molecule?
The T/C was 57 % of control.

What about the T/C (dose: 64.0 mg/kg/injection, schedule: Q07DX003 (ip), vehicle: Klucel (hydroxypropylcellulose) (HPC)) of the same molecule?
The T/C was 46 % of control.

And the T/C (dose: 64.0 mg/kg/injection, schedule: Q07DX003 (ip), vehicle: saline with Tween-80)?
Its T/C is 75 % of control.

And the T/C (dose: 128.0 mg/kg/injection, schedule: Q07DX003 (ip), vehicle: Klucel (hydroxypropylcellulose) (HPC))?
The T/C was 34 % of control.

And the T/C (dose: 128.0 mg/kg/injection, schedule: Q07DX003 (ip), vehicle: saline with Tween-80)?
The T/C was 9 % of control.

What about the T/C (dose: 256.0 mg/kg/injection, schedule: Q07DX003 (ip), vehicle: Klucel (hydroxypropylcellulose) (HPC)) of the same molecule?
Its T/C is 17 % of control.

`COc1cccc2c1C(=O)c1c(O)c3c(c(O)c1C2=O)C[C@@](O)(C(C)=O)C[C@@H]3OC1CC(N)C(O)C(C)O1` (stereo partly specified) was tested. Which T/C [4] did it give?
The T/C was 75 % of control.

And the T/C (dose: 0.5 mg/kg/injection, schedule: Q07DX003 (ip), vehicle: saline)?
Its T/C is 62 % of control and 76 % of control.

And the T/C [5]?
The T/C was 230 % of control.

What about the T/C (dose: 1.0 mg/kg/injection, schedule: Q07DX003 (ip), vehicle: saline) of the same molecule?
The T/C was 55 % of control and 76 % of control.

And the T/C [6]?
Its T/C is 117 % of control.

What about the T/C (dose: 2.0 mg/kg/injection, schedule: Q07DX003 (ip), vehicle: saline) of the same molecule?
Its T/C is 78 % of control and 91 % of control.

Which results are given for `O=C(Cc1cccc2c(=O)cc(-c3ccccc3)oc12)OCCN1CCOCC1`?
T/C [1]: 115 % of control; T/C [2]: 92 % of control

For `CC[C@@]1(O)C[C@H](OC2CC(N(C)C)C(OC3CC(O)C(OC4CCC(=O)C(C)O4)C(C)O3)C(C)O2)c2c(cc3c(c2O)C(=O)c2c(O)ccc(O)c2C3=O)[C@H]1C(=O)OC` (stereo partly specified), which T/C [4] is on record?
Its T/C is 78 % of control.

And the T/C (dose: 0.5 mg/kg/injection, schedule: Q07DX003 (ip), vehicle: water)?
Its T/C is 100 % of control.

What about the T/C [5] of the same molecule?
Its T/C is 47 % of control.

What about the T/C (dose: 1.0 mg/kg/injection, schedule: Q07DX003 (ip), vehicle: water) of the same molecule?
The T/C was 111 % of control.

And the T/C [6]?
Its T/C is 84 % of control.

What about the T/C (dose: 2.0 mg/kg/injection, schedule: Q07DX003 (ip), vehicle: water) of the same molecule?
The T/C was 79 % of control.

And the T/C (dose: 4.0 mg/kg/injection, schedule: Q07DX002 (ip), vehicle: water)?
The T/C was 44 % of control.

What about the T/C (dose: 4.0 mg/kg/injection, schedule: Q07DX003 (ip), vehicle: water) of the same molecule?
Its T/C is 46 % of control.

What about the T/C (dose: 8.0 mg/kg/injection, schedule: Q07DX002 (ip), vehicle: water) of the same molecule?
The T/C was 47 % of control.

What does the source list for `CCC1OCC(C(Cl)CCl)O1` (stereo unspecified)?
T/C (dose: 12.5 mg/kg/injection, schedule: Q07DX002 (ip), vehicle: Klucel (hydroxypropylcellulose) (HPC)): 101 % of control; T/C [7]: 82 % of control; T/C (dose: 25.0 mg/kg/injection, schedule: Q07DX002 (ip), vehicle: Klucel (hydroxypropylcellulose) (HPC)): 95 % of control and 96 % of control; T/C [8]: 96 % of control; T/C [9]: 92 % of control; T/C [10]: 69 % of control; T/C [2]: 203 % of control; T/C [11]: 67 % of control; T/C (dose: 400.0 mg/kg/injection, schedule: Q07DX003 (ip), vehicle: Klucel (hydroxypropylcellulose) (HPC)): 39 % of control

Which results are given for `CC[n+]1c(-c2ccccc2)c2cc(N)ccc2c2ccc(N)cc21`?
T/C [12]: 99 % of control; T/C (dose: 20.0 mg/kg/injection, schedule: Q07DX002 (ip), vehicle: saline): 118 % of control and 103 % of control

Which T/C (dose: 0.31 mg/kg/injection, schedule: Q07DX002 (ip), vehicle: saline) does the source give for `C/C=C(\C)c1cc(=O)c2c(C)cc3c(c2o1)C(=O)c1c(O)c(C2CC(C)(N(C)C)C(OC(C)=O)C(C)O2)cc(C2CC(N(C)C)C(O)C(C)O2)c1C3=O` (stereo unspecified) here?
Its T/C is 78 % of control.

And the T/C (dose: 0.31 mg/kg/injection, schedule: Q07DX002 (ip), vehicle: suspension in saline)?
Its T/C is 84 % of control.

And the T/C (dose: 0.62 mg/kg/injection, schedule: Q07DX002 (ip), vehicle: saline)?
Its T/C is 75 % of control and 92 % of control.

What about the T/C (dose: 0.62 mg/kg/injection, schedule: Q07DX002 (ip), vehicle: suspension in saline) of the same molecule?
The T/C was 97 % of control.

And the T/C (dose: 1.25 mg/kg/injection, schedule: Q07DX002 (ip), vehicle: saline)?
The T/C was 97 % of control.

What about the T/C (dose: 1.25 mg/kg/injection, schedule: Q07DX002 (ip), vehicle: suspension in saline) of the same molecule?
Its T/C is 81 % of control.

And the T/C [12]?
The T/C was 116 % of control and 105 % of control.

And the T/C (dose: 2.5 mg/kg/injection, schedule: Q07DX002 (ip), vehicle: suspension in saline)?
The T/C was 90 % of control.

What about the T/C (dose: 5.0 mg/kg/injection, schedule: Q07DX002 (ip), vehicle: saline) of the same molecule?
The T/C was 86 % of control.

And the T/C (dose: 5.0 mg/kg/injection, schedule: Q07DX002 (ip), vehicle: suspension in saline)?
The T/C was 97 % of control.

What about the T/C (dose: 10.0 mg/kg/injection, schedule: Q07DX002 (ip), vehicle: saline) of the same molecule?
Its T/C is 97 % of control.

And the T/C (dose: 10.0 mg/kg/injection, schedule: Q07DX002 (ip), vehicle: suspension in saline)?
Its T/C is 120 % of control.

With `CC12CC(C(=O)O)C3(O)CC(C)(C1)CC(C)(C2)C3` (stereo unspecified) (tested in a mixture with another compound) as the molecule, how does the T/C [7] read?
The T/C was 70 % of control.

And the T/C [8]?
Its T/C is 94 % of control.

What about the T/C [9] of the same molecule?
Its T/C is 93 % of control.

And the T/C [10]?
The T/C was 121 % of control.

What about the T/C [11] of the same molecule?
The T/C was 84 % of control.

Which T/C (dose: 0.38 mg/kg/injection, schedule: Q07DX003 (ip), vehicle: Klucel (hydroxypropylcellulose) (HPC)) does the source give for `CC[C@]1(O)C[C@H](OC2CC(N(C)C)C(OC3CC(O)C(O)C(C)O3)C(C)O2)c2c(cc3c(c2O)C(=O)c2c(O)ccc(O)c2C3=O)[C@H]1C(=O)OC` (stereo partly specified) here?
The T/C was 109 % of control.

What about the T/C (dose: 0.5 mg/kg/injection, schedule: Q07DX003 (ip), vehicle: Klucel (hydroxypropylcellulose) (HPC)) of the same molecule?
Its T/C is 45 % of control.

What about the T/C (dose: 0.75 mg/kg/injection, schedule: Q07DX003 (ip), vehicle: Klucel (hydroxypropylcellulose) (HPC)) of the same molecule?
Its T/C is 62 % of control.

And the T/C (dose: 1.0 mg/kg/injection, schedule: Q07DX003 (ip), vehicle: Klucel (hydroxypropylcellulose) (HPC))?
The T/C was 25 % of control.

And the T/C (dose: 1.5 mg/kg/injection, schedule: Q07DX003 (ip), vehicle: Klucel (hydroxypropylcellulose) (HPC))?
Its T/C is 66 % of control.

What about the T/C (dose: 3.0 mg/kg/injection, schedule: Q07DX003 (ip), vehicle: Klucel (hydroxypropylcellulose) (HPC)) of the same molecule?
Its T/C is 73 % of control.

What about the T/C (dose: 4.0 mg/kg/injection, schedule: Q07DX003 (ip), vehicle: Klucel (hydroxypropylcellulose) (HPC)) of the same molecule?
Its T/C is 35 % of control.

And the T/C (dose: 6.0 mg/kg/injection, schedule: Q07DX003 (ip), vehicle: Klucel (hydroxypropylcellulose) (HPC))?
Its T/C is 79 % of control.

What about the T/C [3] of the same molecule?
The T/C was 21 % of control.

Which results are given for `C=CCOCC1CO1` (stereo unspecified)?
T/C (dose: 12.5 mg/kg/injection, schedule: Q07DX002 (ip), vehicle: saline): 66 % of control; T/C (dose: 100.0 mg/kg/injection, schedule: Q07DX002 (ip), vehicle: saline): 85 % of control; T/C (dose: 200.0 mg/kg/injection, schedule: Q07DX002 (ip), vehicle: saline): 122 % of control
